Where “and” joins values, the source holds several entries; their conditions need not be identical. Equal values may be shown once. Inconclusive results and toxic doses are left out.
Tested on: BDF1 mice, P388 leukemia ip, median survival T/C
Experiment: NCI In Vivo Anticancer Drug Screen. Data for tumor model P388 Leukemia (intraperitoneal) in B6D2F1 (BDF1) mice
Conditions: endpoint: median survival time, higher = longer survival
Outline: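 Antitumour effect was judged in vivo: survival in drug-treated mice, normalised to that of vehicle-dosed controls, gives the reported T/C.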

[1] = dose: 100.0 mg/kg/injection, schedule: Q01DX009 (ip), vehicle: saline with Tween-80
[2] = dose: 50.0 mg/kg/injection, schedule: Q01DX009 (ip), vehicle: other
[3] = dose: 100.0 mg/kg/injection, schedule: Q04DX003 (ip), vehicle: saline
[4] = dose: 200.0 mg/kg/injection, schedule: Q01DX009 (ip), vehicle: other
[5] = dose: 200.0 mg/kg/injection, schedule: Q04DX003 (ip), vehicle: saline
[6] = dose: 12.5 mg/kg/injection, schedule: Q01DX009 (ip), vehicle: Klucel (hydroxypropylcellulose) (HPC)
[7] = dose: 25.0 mg/kg/injection, schedule: Q01DX009 (ip), vehicle: Klucel (hydroxypropylcellulose) (HPC)
[8] = dose: 50.0 mg/kg/injection, schedule: Q01DX009 (ip), vehicle: Klucel (hydroxypropylcellulose) (HPC)
[9] = dose: 50.0 mg/kg/injection, schedule: Q01DX009 (ip), vehicle: saline with Tween-80

NC(Cc1cccs1)C(=O)O (configuration not stated)
T/C [1]: 100 % of control
T/C (dose: 200.0 mg/kg/injection, schedule: Q01DX009 (ip), vehicle: saline with Tween-80): 110 % of control
T/C (dose: 400.0 mg/kg/injection, schedule: Q01DX009 (ip), vehicle: saline with Tween-80): 110 % of control

CCOC1=CCCCC1
T/C (dose: 100.0 mg/kg/injection, schedule: Q01DX009 (ip), vehicle: saline): 113 % of control
T/C (dose: 200.0 mg/kg/injection, schedule: Q01DX009 (ip), vehicle: saline): 115 % of control and 122 % of control
T/C (dose: 400.0 mg/kg/injection, schedule: Q01DX009 (ip), vehicle: saline): 118 % of control

OCC1(O)CC(O)C(O)(CO)CC1O (configuration not stated)
T/C [2]: 104 % of control
T/C (dose: 50.0 mg/kg/injection, schedule: Q04DX003 (ip), vehicle: saline): 104 % of control
T/C (dose: 100.0 mg/kg/injection, schedule: Q01DX009 (ip), vehicle: other): 95 % of control
T/C [3]: 116 % of control
T/C [4]: 118 % of control
T/C [5]: 95 % of control

C=CCNc1ccc(C)cc1
T/C [6]: 110 % of control
T/C [7]: 116 % of control
T/C [8]: 116 % of control
T/C [1]: 122 % of control

COc1ccc(/C(C#N)=C\c2ccnc3ccccc23)cc1
T/C (dose: 12.5 mg/kg/injection, schedule: Q01DX009 (ip), vehicle: other): 89 % of control
T/C (dose: 25.0 mg/kg/injection, schedule: Q01DX009 (ip), vehicle: other): 93 % of control
T/C [2]: 90 % of control
T/C [4]: 100 % of control

CCNSc1ccccc1
T/C [6]: 109 % of control
T/C [7]: 110 % of control
T/C [8]: 106 % of control

CC(=O)OCC1OC(n2cnc3c(=S)nc(N)[nH]c32)C(OC(C)=O)C1OC(C)=O (configuration not stated)
T/C (dose: 3.5 mg/kg/injection, schedule: Q01DX009 (ip), vehicle: saline with Tween-80): 113 % of control
T/C (dose: 5.2 mg/kg/injection, schedule: Q01DX009 (ip), vehicle: saline with Tween-80): 122 % of control
T/C (dose: 12.0 mg/kg/injection, schedule: Q01DX009 (ip), vehicle: saline with Tween-80): 90 % of control
T/C (dose: 18.0 mg/kg/injection, schedule: Q01DX009 (ip), vehicle: saline with Tween-80): 100 % of control
T/C (dose: 26.0 mg/kg/injection, schedule: Q01DX009 (ip), vehicle: saline with Tween-80): 90 % of control
T/C (dose: 40.0 mg/kg/injection, schedule: Q01DX009 (ip), vehicle: saline with Tween-80): 90 % of control
T/C [9]: 90 % of control
T/C (dose: 132.0 mg/kg/injection, schedule: Q04DX003 (ip), vehicle: saline with Tween-80): 100 % of control
T/C (dose: 200.0 mg/kg/injection, schedule: Q04DX003 (ip), vehicle: saline with Tween-80): 166 % of control

Cc1cc2c(c3ncccc13)OCN(Cc1ccc(Cl)cc1)C2
T/C (dose: 12.5 mg/kg/injection, schedule: Q01DX009 (ip), vehicle: saline with Tween-80): 104 % of control
T/C (dose: 25.0 mg/kg/injection, schedule: Q01DX009 (ip), vehicle: saline with Tween-80): 100 % of control
T/C [9]: 91 % of control

C/C=C(/Cl)c1c(C)cc(C)c(CC(=O)O)c1C
T/C (dose: 100.0 mg/kg/injection, schedule: Q04DX003 (ip), vehicle: Klucel (hydroxypropylcellulose) (HPC)): 87 % of control
T/C (dose: 200.0 mg/kg/injection, schedule: Q04DX003 (ip), vehicle: Klucel (hydroxypropylcellulose) (HPC)): 95 % of control
T/C (dose: 400.0 mg/kg/injection, schedule: Q04DX003 (ip), vehicle: Klucel (hydroxypropylcellulose) (HPC)): 95 % of control

O=C(O)C1OC12CCCCC2 (configuration not stated)
T/C [3]: 91 % of control
T/C [5]: 91 % of control
T/C (dose: 400.0 mg/kg/injection, schedule: Q04DX003 (ip), vehicle: saline): 91 % of control

N=c1ccn(C(=O)C2=Cc3ccccc3OC2)cc1
T/C (dose: 1.25 mg/kg/injection, schedule: Q01DX009 (ip), vehicle: saline with Tween-80): 88 % of control and 112 % of control
T/C (dose: 2.5 mg/kg/injection, schedule: Q01DX009 (ip), vehicle: saline with Tween-80): 96 % of control and 100 % of control
T/C (dose: 5.0 mg/kg/injection, schedule: Q01DX009 (ip), vehicle: saline with Tween-80): 92 % of control and 100 % of control and 112 % of control
T/C (dose: 5.0 mg/kg/injection, schedule: Q04DX003 (ip), vehicle: saline with Tween-80): 118 % of control
T/C (dose: 10.0 mg/kg/injection, schedule: Q04DX003 (ip), vehicle: saline with Tween-80): 95 % of control
T/C (dose: 20.0 mg/kg/injection, schedule: Q04DX003 (ip), vehicle: saline with Tween-80): 90 % of control

Source: PubChem BioAssay AID328 (DTP/NCI, 2004)
